Entries after “also recorded” stand apart in the source; their conditions may differ. Where a SMILES comes first, the peptide text is derived from it. [ ]: non-standard residue; d: D form. The star is where a group is joined. FITC = O=C1OC2(c3ccc(O)cc3Oc3cc(O)ccc32)c2ccc(NC(=S)*)cc21; pY = N[C@@H](Cc1ccc(OP(=O)(O)O)cc1)C(=O)O
How the values were obtained:
Ack1 = conditions: mice treated with a TLR7 ligand; cited from earlier work
Excerpt: It is increasingly clear that Mer plays a crucial role in the macrophage-mediated phagocytosis of apoptotic cells. […] Gas6 has a Gla domain at its N-terminus and binds to Mer and other TAMs to promote tyrosine kinase activity. […] Gene expression studies in colon cancer patients have shown a correlation between Ack1 expression and the extent of immune cell infiltration. Ack1 is required for apoptosis induced by TRAIL, an apoptosis-promoting factor [25], and dysregulation of Ack1 is linked to abnormal apoptotic activity. Ack1 promotes the activation of the Toll-like receptor (TLR) family members TLR4, TLR7, and TLR9 in macrophages and dendritic cells. A small molecule inhibitor of Ack1 (AIM-100) re ...

macrophages = conditions: cited from earlier work
Excerpt: Gene expression studies in colon cancer patients have shown a correlation between Ack1 expression and the extent of immune cell infiltration. Ack1 is required for apoptosis induced by TRAIL, an apoptosis-promoting factor [25], and dysregulation of Ack1 is linked to abnormal apoptotic activity. Ack1 promotes the activation of the Toll-like receptor (TLR) family members TLR4, TLR7, and TLR9 in macrophages and dendritic cells. A small molecule inhibitor of Ack1 (AIM-100) re ...

Mer kinase domain = target: T1, Mer kinase domain (Homo sapiens, UniProt Q12866); assay: Fluorescence polarization binding of fluorescein-labeled phosphopeptides to Mer kinase domain
T1 construct: His tag; host or cells: E. coli YGT cells co-expressing YopH tyrosine phosphatase and GroEL
T1 sequence (Q12866 587-858 limits assumed): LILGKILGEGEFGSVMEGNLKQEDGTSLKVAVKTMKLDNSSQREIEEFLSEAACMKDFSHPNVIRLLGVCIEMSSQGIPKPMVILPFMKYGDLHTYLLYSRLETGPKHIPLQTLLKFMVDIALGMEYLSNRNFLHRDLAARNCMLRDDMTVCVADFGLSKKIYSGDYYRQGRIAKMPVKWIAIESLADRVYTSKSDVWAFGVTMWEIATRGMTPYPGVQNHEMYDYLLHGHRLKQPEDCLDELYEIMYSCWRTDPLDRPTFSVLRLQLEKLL
Description: (§1) Figure 4. Ack1 MHR-derived peptides. (A) Position of the MHR domain in Ack1. The expanded sequences show an alignment between Mig6 and the MHR of Ack1, with Y859–Y860 in yellow. Asterisks indicate conserved residues. (B) Phosphorylation of MHR-derived peptides (100 μM) by Mer was measured using the phosphocellulose paper binding assay (SEM error bars). (C) Binding of fluorescein-labeled pY860 peptide to Mer kinase domain was measured by fluorescence polarization.
To confirm the interaction between pY860 and Mer, we attached fluorescein to the N-terminus of peptide pY860 and measured fluorescence polarization in the presence of increasing concentrations of Mer catalytic domain (Figure 4C).
Phosphotyrosine-containing peptides were fluorescently labeled by reaction with fluorescein isothiocyanate (5 molar equivalents) in 100 mM potassium phosphate buffer (pH 7.0) for 1 h at room temperature. The fluorescent peptides were purified by gel filtration chromatography on G15 Sephadex. Fluorescence polarization was measured in a Wallac1420 Victor2 instrument using 96-well half area black plates (Thermo Fisher, Waltham, MA, USA). The excitation filter was 485 nm, and the emission filter was 535 nm. Measurements were performed in volumes of 50 μL using a buffer of 50 mM Tris (pH 7.4), with peptide concentrations of 0.25 μM or 0.5 μM. The data were analyzed with Origin software (Origin v.7).

[1] = target: fluorescein-labeled Ack1 MHR peptide pY860; assay: fluorescence polarisation; fluorescein-labelled phosphopeptide at 0.25 or 0.5 uM, increasing concentrations of Mer catalytic domain; 50 mM Tris pH 7.4, 50 uL; apparent Kd
Mer kinase = assay: Phosphocellulose paper binding assay: phosphorylation of MHR-derived peptides by Mer; format: biochemical, human; conditions: peptide 100 μM; [γ-32P]ATP; purified Mer kinase domain; 30 °C
Description: as §1
For IP-kinase assays, cell lysates (1 mg protein) were incubated with 30 μL of EZview red anti-FLAG M2 affinity resin at 4 °C for 4 h-overnight, then washed three times with Tris-buffered saline. A portion of each sample was eluted with SDS-PAGE sample buffer and analyzed by anti-Flag Western blotting. […]
Synthetic peptides and phosphopeptides were purchased from Genemed Synthesis Inc., San Antonio, TX, USA and were purified by semipreparative HPLC on a Vydac C18 column. Peptide phosphorylation was measured using the phosphocellulose paper binding assay with [γ-^32P] […] In this assay, the production of ADP was coupled to the oxidation of NADH, which was measured as a reduction in absorbance at 340 nm. […] Absorbance data were recorded every 8 s. Kinetic constants were determined by nonlinear fitting to the initial velocity vs. (substrate) curves using GraphPad Prism, San Diego, CA, USA (v.9).

Compound: c1ccc(-c2oc3ncnc(NC[C@@H]4CCCO4)c3c2-c2ccccc2)cc1 [AIM-100]
- Effect on lupus symptoms / lupus-like phenotype (Ack1): mitigated the lupus symptoms; also recorded: diminishing the lupus-like phenotype
- Effect on TLR-mediated activation of macrophages (macrophages): reduced

Compound: CC(C)C[C@H](NC(=O)[C@H](Cc1ccc(OP(=O)(O)O)cc1)NC(=O)[C@H](Cc1ccc(O)cc1)NC(=O)[C@H](Cc1c[nH]cn1)NC(=O)[C@@H](NC(=O)[C@H](CO)NC(=O)[C@H](CO)NC(=O)[C@@H](NC(=O)[C@H](CCCCN)NC(=O)[C@H](CCCCN)NC(=O)CNC(=O)[C@H](CC(=O)O)NC(=O)[C@H](CCCNC(=N)N)NC(=S)Nc1ccc2c(c1)C(=O)OC21c2ccc(O)cc2Oc2cc(O)ccc21)C(C)C)[C@@H](C)O)C(=O)N[C@@H](CC(C)C)C(=O)N1CCC[C@H]1C(=O)N[C@@H](CCC(=O)O)C(=O)O [pY860] ({FITC}-RDGKKVSSTHY[pY]LLPE-OH)
- Kd (Mer kinase domain): 5.4 µM

Compound: His-tagged Mer kinase domain (from UniProt Q12866 587-858) (domain or fragment)
- Kd [1]: 5.4 µM

Compound: RDGKKVSSTHpYYLLPE [pY859, Ack1 MHR-derived phosphopeptide containing phosphorylated Y859]
- Binding of peptide to Mer (fluorescence polarization) (Mer kinase domain; fluorescein-labeled peptide, 50 mM Tris pH 7.4, peptide 0.25 or 0.5 μM): below the detection limit; also recorded: poor binding

Compound: RLSSSPGKTMPTTQSFASDPKYA [MHR1, Ack1 MHR-derived synthetic peptide containing Y827]
- Phosphorylation of peptide by Mer (substrate quality) (Mer kinase): not a good substrate

Source: article PMC10473914, “Phosphorylation of Ack1 by the Receptor Tyrosine Kinase Mer” (Kinases and phosphatases, 2023)
